According to US9849130B2 (KamTek, Inc., priority 2014, dated 2017):
Converted amounts (≈) assume the structure as drawn. “And” between values parts separate entries of the source, which are not always exact repeats. Equal values may be shown once. Read-outs that look alike come from different tables or passages of the source.

Experiments:
[1] = tested on: Staphylococcus aureus strains; assay: MIC by microdilution in Mueller-Hinton broth against Staphylococcus aureus strains; format: cell-based; conditions: Staphylococcus aureus
[2] = tested on: Enterococci faecium; assay: MIC by microdilution in Mueller-Hinton broth against Enterococci faecium strains; format: cell-based, Enterococcus faecium; conditions: Enterococcus faecium, Mueller-Hinton broth, read-out: MIC
[3] = tested on: Escherichia coli strains; assay: MIC by microdilution in Mueller-Hinton broth against Escherichia coli strains; format: cell-based; conditions: for MIC: Escherichia coli, Mueller-Hinton broth, read-out: MIC
[4] = tested on: Enterococcus faecalis; assay: MIC by microdilution in Mueller-Hinton broth against Enterococcus faecalis strains; format: cell-based; conditions: Enterococcus faecalis
[5] = tested on: Bacteroides Strains; assay: MIC by microdilution in Brucella broth against Bacteroides strains; format: cell-based, Bacteroides spp.
[6] = tested on: Clostridium difficile (CD) strains; assay: microbe, parasite or virus in culture; format: cell-based
[7] = S. aureus NR 10129, read-out: MIC
[8] = S. aureus NR 10186, read-out: MIC
[9] = S. aureus NR 10187, read-out: MIC
[10] = S. aureus NR 10188, read-out: MIC
[11] = S. aureus NR 10189, read-out: MIC
[12] = S. aureus NR 10191, read-out: MIC
[13] = S. aureus NR 10192, read-out: MIC
[14] = S. aureus NR 10193, read-out: MIC
[15] = S. aureus NR 10194, read-out: MIC
[16] = S. aureus NR 10198, read-out: MIC
[17] = Staphylococcus aureus strain NR 10129, read-out: MIC
[18] = Staphylococcus aureus strain NR 10186, read-out: MIC
[19] = Staphylococcus aureus strain NR 10187, read-out: MIC
[20] = Staphylococcus aureus strain NR 10188, read-out: MIC
[21] = Staphylococcus aureus strain NR 10189, read-out: MIC
[22] = Staphylococcus aureus strain NR 10191, read-out: MIC
[23] = Staphylococcus aureus strain NR 10192, read-out: MIC
[24] = Staphylococcus aureus strain NR 10193, read-out: MIC
[25] = Staphylococcus aureus strain NR 10194, read-out: MIC
[26] = Staphylococcus aureus strain NR 10198, read-out: MIC
[27] = Escherichia coli strain NR 17626
[28] = Escherichia coli strain NR 17627
[29] = Escherichia coli strain NR 17633
[30] = Escherichia coli strain NR 17647
[31] = Escherichia coli strain NR 17650
[32] = Escherichia coli strain NR 17661
[33] = E. faecalis NR 31884, read-out: MIC
[34] = E. faecalis NR 31885, read-out: MIC
[35] = E. faecalis NR 31886, read-out: MIC
[36] = E. faecalis NR 31887, read-out: MIC
[37] = E. faecalis NR 31888, read-out: MIC

SMILES: NCC[C@H](O)C(=O)N[C@@H]1C[C@H](N)[C@@H](O[C@H]2O[C@H](CN)[C@@H](O)[C@H](O)[C@H]2O)[C@H](O)[C@H]1O[C@H]1O[C@H](CO)[C@@H](O)[C@H](N)[C@H]1O [AMK, amikacin]
- MIC [1, 7]: 2 µg/mL (≈ 3.42 µM)
- MIC [1, 8]: 32 µg/mL (≈ 54.6 µM)
- MIC [1, 9]: > 32 µg/mL
- MIC [1, 10]: > 32 µg/mL
- MIC [1, 11]: 4 µg/mL (≈ 6.83 µM)
- MIC [1, 12]: 32 µg/mL (≈ 54.6 µM)
- MIC [1, 13]: > 32 µg/mL
- MIC [1, 14]: > 32 µg/mL
- MIC [1, 15]: 32 µg/mL (≈ 54.6 µM)
- MIC [1, 16]: > 32 µg/mL
- MIC [1, 17]: 2 µg/mL (≈ 3.42 µM)
- MIC [1, 18]: 32 µg/mL (≈ 54.6 µM)
- MIC [1, 19]: > 32 µg/mL
- MIC [1, 20]: > 32 µg/mL
- MIC [1, 21]: 4 µg/mL (≈ 6.83 µM)
- MIC [1, 22]: 32 µg/mL (≈ 54.6 µM)
- MIC [1, 23]: > 32 µg/mL
- MIC [1, 24]: > 32 µg/mL
- MIC [1, 25]: 32 µg/mL (≈ 54.6 µM)
- MIC [1, 26]: > 32 µg/mL
- MIC ([2]; E. faecium NR 31903): > 32 µg/mL
- MIC ([2]; E. faecium NR 31909): > 32 µg/mL
- MIC ([2]; E. faecium NR 31912): > 32 µg/mL
- MIC ([2]; E. faecium NR 31915): > 32 µg/mL
- MIC ([2]; E. faecium NR 31916): > 32 µg/mL
- MIC ([3]; E. coli NR 6): 4 µg/mL (≈ 6.83 µM)
- MIC ([3]; E. coli NR 8): 4 µg/mL (≈ 6.83 µM)
- MIC ([3]; E. coli NR 96): 8 µg/mL (≈ 13.7 µM)
- MIC ([3]; E. coli NR 104): 2 µg/mL (≈ 3.42 µM)
- MIC ([3]; E. coli NR 17626): 16 µg/mL (≈ 27.3 µM)
- MIC ([3]; E. coli NR 17627): 8 µg/mL (≈ 13.7 µM)
- MIC ([3]; E. coli NR 17633): 8 µg/mL (≈ 13.7 µM)
- MIC ([3]; E. coli NR 17647): 2 µg/mL (≈ 3.42 µM)
- MIC ([3]; E. coli NR 17650): 8 µg/mL (≈ 13.7 µM)
- MIC ([3]; E. coli NR 17661): 2 µg/mL (≈ 3.42 µM)
- MIC ([3]; Escherichia coli strain NR 6): 4 µg/mL (≈ 6.83 µM)
- MIC ([3]; Escherichia coli strain NR 8): 4 µg/mL (≈ 6.83 µM)
- MIC ([3]; Escherichia coli strain NR 96): 8 µg/mL (≈ 13.7 µM)
- MIC ([3]; Escherichia coli strain NR 104): 2 µg/mL (≈ 3.42 µM)
- MIC [3, 27]: 16 µg/mL (≈ 27.3 µM)
- MIC [3, 28]: 8 µg/mL (≈ 13.7 µM)
- MIC [3, 29]: 8 µg/mL (≈ 13.7 µM)
- MIC [3, 30]: 2 µg/mL (≈ 3.42 µM)
- MIC [3, 31]: 8 µg/mL (≈ 13.7 µM)
- MIC [3, 32]: 2 µg/mL (≈ 3.42 µM)
- MIC [4, 33]: > 32 µg/mL
- MIC [4, 34]: > 32 µg/mL
- MIC [4, 35]: > 32 µg/mL
- MIC [4, 36]: > 32 µg/mL
- MIC [4, 37]: > 32 µg/mL

SMILES: CC1(C)S[C@@H]2[C@H](NC(=O)[C@H](N)c3ccccc3)C(=O)N2[C@H]1C(=O)O [AMP, ampicillin]
- MIC [1, 7]: > 32 µg/mL
- MIC [1, 8]: > 32 µg/mL
- MIC [1, 9]: 8 µg/mL (≈ 22.9 µM)
- MIC [1, 10]: 16 µg/mL (≈ 45.8 µM)
- MIC [1, 11]: 32 µg/mL (≈ 91.6 µM)
- MIC [1, 12]: > 32 µg/mL
- MIC [1, 13]: 32 µg/mL (≈ 91.6 µM)
- MIC [1, 14]: > 32 µg/mL
- MIC [1, 15]: 2 µg/mL (≈ 5.72 µM)
- MIC [1, 16]: > 32 µg/mL
- MIC [1, 17]: > 32 µg/mL
- MIC [1, 18]: > 32 µg/mL
- MIC [1, 19]: 8 µg/mL (≈ 22.9 µM)
- MIC [1, 20]: 16 µg/mL (≈ 45.8 µM)
- MIC [1, 21]: 32 µg/mL (≈ 91.6 µM)
- MIC [1, 22]: > 32 µg/mL
- MIC [1, 23]: 32 µg/mL (≈ 91.6 µM)
- MIC [1, 24]: > 32 µg/mL
- MIC [1, 25]: 2 µg/mL (≈ 5.72 µM)
- MIC [1, 26]: > 32 µg/mL
- MIC ([2]; E. faecium NR 31903): > 32 µg/mL
- MIC ([2]; E. faecium NR 31909): > 32 µg/mL
- MIC ([2]; E. faecium NR 31912): > 32 µg/mL
- MIC ([2]; E. faecium NR 31915): 2 µg/mL (≈ 5.72 µM)
- MIC ([2]; E. faecium NR 31916): > 32 µg/mL
- MIC ([3]; E. coli NR 6): 2 µg/mL (≈ 5.72 µM)
- MIC ([3]; E. coli NR 8): 4 µg/mL (≈ 11.4 µM)
- MIC ([3]; E. coli NR 96): 4 µg/mL (≈ 11.4 µM)
- MIC ([3]; E. coli NR 104): 4 µg/mL (≈ 11.4 µM)
- MIC ([3]; E. coli NR 17626): 4 µg/mL (≈ 11.4 µM)
- MIC ([3]; E. coli NR 17627): 4 µg/mL (≈ 11.4 µM)
- MIC ([3]; E. coli NR 17633): 4 µg/mL (≈ 11.4 µM)
- MIC ([3]; E. coli NR 17647): 4 µg/mL (≈ 11.4 µM)
- MIC ([3]; E. coli NR 17650): 4 µg/mL (≈ 11.4 µM)
- MIC ([3]; E. coli NR 17661): > 32 µg/mL
- MIC ([3]; Escherichia coli strain NR 6): 2 µg/mL (≈ 5.72 µM)
- MIC ([3]; Escherichia coli strain NR 8): 4 µg/mL (≈ 11.4 µM)
- MIC ([3]; Escherichia coli strain NR 96): 4 µg/mL (≈ 11.4 µM)
- MIC ([3]; Escherichia coli strain NR 104): 4 µg/mL (≈ 11.4 µM)
- MIC [3, 27]: 4 µg/mL (≈ 11.4 µM)
- MIC [3, 28]: 4 µg/mL (≈ 11.4 µM)
- MIC [3, 29]: 4 µg/mL (≈ 11.4 µM)
- MIC [3, 30]: 4 µg/mL (≈ 11.4 µM)
- MIC [3, 31]: 4 µg/mL (≈ 11.4 µM)
- MIC [3, 32]: > 32 µg/mL
- MIC [4, 33]: 4 µg/mL (≈ 11.4 µM)
- MIC [4, 34]: 4 µg/mL (≈ 11.4 µM)
- MIC [4, 35]: 4 µg/mL (≈ 11.4 µM)
- MIC [4, 36]: 0.5 µg/mL (≈ 1.43 µM)
- MIC [4, 37]: 4 µg/mL (≈ 11.4 µM)

SMILES: O=C1C(NC2CCCCCCC2)=CC(=O)c2ncccc21 [AZQ, 6-(cyclooctylamino)-5,8-quinolinequinone]
- MIC [1, 7]: 32 µg/mL (≈ 113 µM)
- MIC [1, 8]: 16 µg/mL (≈ 56.3 µM)
- MIC [1, 9]: > 32 µg/mL
- MIC [1, 10]: 32 µg/mL (≈ 113 µM)
- MIC [1, 11]: 16 µg/mL (≈ 56.3 µM)
- MIC [1, 12]: 8 µg/mL (≈ 28.1 µM)
- MIC [1, 13]: 32 µg/mL (≈ 113 µM)
- MIC [1, 14]: 16 µg/mL (≈ 56.3 µM)
- MIC [1, 15]: 16 µg/mL (≈ 56.3 µM)
- MIC [1, 16]: 16 µg/mL (≈ 56.3 µM)
- MIC ([2]; E. faecium NR 31903): > 32 µg/mL
- MIC ([2]; E. faecium NR 31909): 32 µg/mL (≈ 113 µM)
- MIC ([2]; E. faecium NR 31912): 32 µg/mL (≈ 113 µM)
- MIC ([2]; E. faecium NR 31915): > 32 µg/mL
- MIC ([2]; E. faecium NR 31916): 16 µg/mL (≈ 56.3 µM)
- activity against E. coli (in words) [3]: no activity
- MIC ([3]; E. coli NR 6): > 32 µg/mL
- MIC ([3]; E. coli NR 8): > 32 µg/mL
- MIC ([3]; E. coli NR 96): > 32 µg/mL
- MIC ([3]; E. coli NR 104): > 32 µg/mL
- MIC ([3]; E. coli NR 17626): > 32 µg/mL
- MIC ([3]; E. coli NR 17627): > 32 µg/mL
- MIC ([3]; E. coli NR 17633): > 32 µg/mL
- MIC ([3]; E. coli NR 17647): > 32 µg/mL
- MIC ([3]; E. coli NR 17650): > 32 µg/mL
- MIC ([3]; E. coli NR 17661): > 32 µg/mL
- MIC ([5]; B. caccae HM728, read-out: MIC): 2 µg/mL (≈ 7.03 µM)
- MIC ([5]; B. eggerthii HM210, read-out: MIC): 2 µg/mL (≈ 7.03 µM)
- MIC ([5]; B. fragilis HM709, read-out: MIC): 2 µg/mL (≈ 7.03 µM)
- MIC ([5]; B. fragilis HM710, read-out: MIC): 2 µg/mL (≈ 7.03 µM)
- MIC ([5]; B. fragilis HM714, read-out: MIC): 2 µg/mL (≈ 7.03 µM)
- MIC ([5]; B. ovatus HM222, read-out: MIC): 1 µg/mL (≈ 3.52 µM)
- MIC ([5]; B. stercoris HM1036, read-out: MIC): 2 µg/mL (≈ 7.03 µM)
- MIC ([5]; Bacteroides, B. spp. HM19): 4 µg/mL (≈ 14.1 µM)
- MIC ([5]; Bacteroides, B. spp. HM23, read-out: MIC): 2 µg/mL (≈ 7.03 µM)
- MIC ([5]; Bacteroides, B. spp. HM27): 1 µg/mL (≈ 3.52 µM)
- MIC ([5]; Bacteroides, B. spp. HM58): 4 µg/mL (≈ 14.1 µM)
- MIC [4, 33]: 32 µg/mL (≈ 113 µM)
- MIC [4, 34]: 32 µg/mL (≈ 113 µM)
- MIC [4, 35]: 32 µg/mL (≈ 113 µM)
- MIC [4, 36]: 16 µg/mL (≈ 56.3 µM)
- MIC [4, 37]: 32 µg/mL (≈ 113 µM)
- MIC Range [6]: 0.25 to 1 µg/mL
- MIC90 ([6]; Clostridioides difficile): 1 µg/mL (≈ 3.52 µM)

SMILES: CC1(C)CC(N=c2cc3n(-c4ccc(Cl)c(Cl)c4)c4ccccc4nc-3cc2Nc2ccc(Cl)c(Cl)c2)CC(C)(C)N1 [B4100]
- MIC [6]: 0.25 µg/mL and 0.125 µg/mL
